Laboratory results as given in patent US12370235B2, “Synthetic, non-natural antimicrobial peptides inspired by Staphylococcus auricularis delta toxin” (University of Saskatchewan, priority 2021, dated 2025).
Values after ≈ are worked out from the molar mass of the structure shown. Square brackets hold non-standard residues; d marks the D form. Ends that are not written are not given here. Peptide text beside a SMILES is read from it.

Experiments:
[1] = system: S. aureus / MRSA (ATCC MP-2 panel); type: cell-based, Staphylococcus aureus
Procedure: In order to begin to characterize STIP3-1 and potential sites amenable to modification, an alanine scanning experiment was performed. A total of 16 peptides with single alanine substitutions were assessed to inform on the importance of individual residues to antimicrobial activity. […] Next a series of thirty STIP3-1 variants were designed, guided by the aforementioned alanine scan and a previous report that the central α-helical core of the S. aureus δ-toxin could be converted into AMP through the inclusion of additional lysine residues^39. The collection included ten members with single substitutions relative to STIP3-1 and others that incorporated a number of changes that were designed to increase overall and local cationic charge as well as hydrophobic character (Table 5). Each of the STIPs was screened, including STIP3-1 to STIP-31, for antibiotic activity against a methicillin-sensitive S. aureus test organism and a panel of 7 MRSA strains defined by distinct SCCmec genotypes (FIG. 2; ATCC MP-2).
(§1) Determination of minimum inhibitory concentrations. The MICs were measured for bioactive peptides identified from the initial screen. For bacterial studies, cation-adjusted Mueller Hinton (MH) broth was used as the growth medium whereas YPD was used for C. albicans. Bacterial cultures were diluted to a OD value of 6×10^−4 in MH broth and a 180 μl volume was mixed with 20 μl of peptide arrayed as 2-fold dilution series in a 96-well plate. For the positive control, 20 μl of sterile water was used. Plates were incubated as standing cultures overnight at 37° C. The lowest peptide concentration that resulted no observed microbial growth after an overnight treatment was defined as the MIC.

S. aureus ATCC 29213 [2] = assay: MIC, broth dilution; type: cell-based, Staphylococcus aureus; conditions: for MIC S. aureus ATCC 29213: Table 5, STIP3 variants, highest concentration 100 μg/mL; for MIC (μg/mL) S. aureus: liquid broth
In short: (§2)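 MIC defined as the lowest peptide level giving no growth after overnight standing incubation at 37° C. Bacteria at OD 6×10^−4 in cation-adjusted MH broth met 2-fold serial peptide dilutions; peptide purity 95%.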

[3] = system: S. aureus ATCC 33592 (MRSA SCCmec type III); assay: MIC, broth dilution; type: cell-based, Staphylococcus aureus; conditions: Table 5; STIP3 variants, highest concentration 100 μg/mL
In short: as §2

[4] = Circular dichroism spectroscopy; type: physicochemical; conditions: CD, 50% (v/v) TFE
In short: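 Secondary structure of peptides dissolved in water at 0.3–0.5 mg/mL was assessed by CD. Spectra were recorded from 180 to 260 nm at room temperature in a 0.1 cm quartz cuvette; water and 50% (v/v) TFE conditions were compared.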

C. albicans Y537 = assay: MIC, YPD broth; type: cell-based, Candida albicans; conditions: Table 8
C. albicans MYA-2876 = assay: MIC, YPD broth; type: cell-based, Candida albicans; conditions: Table 8
In short: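 Minimum inhibitory concentrations against Candida albicans were determined in YPD broth (10 g/L yeast extract, 20 g/L peptone, 20 g/L dextrose) using peptides of 95% purity. A 180 μl volume of diluted yeast was combined with 20 μl of peptide in a 2-fold dilution series in 96-well plates, with sterile water as control, then incubated standing overnight at 37° C.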

M. luteus ATCC 4698 = assay: MIC, broth dilution; type: cell-based, Micrococcus luteus; conditions: Table 4; liquid broth
Procedure: MIC determination. MICs were measured using peptides with 95% purity. For bacterial studies, cation-adjusted Mueller Hinton (MH) broth was used as the growth medium whereas Yeast Peptone Dextrose (YPD; 10 g/L yeast extract, 20 g/L peptone, 20 g/L dextrose) was used for Candida spp. and other yeast. Microorganisms were diluted to an optical density of […] in MH or YPD broth and a 180 μl volume was mixed with 20 μl of peptide arrayed as a 2-fold dilution series in a flat-bottom 96-well microtitre plate. A control was performed using 20 μl of sterile water. Plates were incubated as standing cultures overnight at 37° C.
as §1

[5] = system: Mannheimia haemolytica ATCC 33393; assay: MIC, broth dilution; type: cell-based
In short: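 Peptides (95% purity) in 2-fold dilution series were mixed with M. haemolytica diluted to OD 6×10^−4 in cation-adjusted Mueller Hinton broth and incubated standing overnight at 37 °C. MIC was the lowest concentration with no visible growth.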

S. aureus ATCC 29213 [6] = assay: Spot-on-lawn assay; type: cell-based, Staphylococcus aureus; conditions: 50 μg peptide spotted on agar
Procedure: Spot-on-lawn assay. For the initial screen, peptides of ≥70% purity were used. Each peptide was resuspended in sterile water to a concentration of 10 mg/ml. To determine antimicrobial activities a spot-on-lawn assay was performed. M. luteus and S. aureus were used as indicator strains. To prepare test organisms, the optical density (OD) of overnight cultures were measured and the organisms were diluted to an initial OD of 0.05 in soft nutrient agar (0.4% w/v) at 50° C. Next, 3 mL of soft agar containing a test organism was overlaid on a solid 1.5% w/v nutrient agar plate (LB). A total of 50 μg of each peptide was spotted on the inoculated surface and plates were incubated for 16 to 48 h before being examined for zones of inhibition.
SspA protease treatment. SspA protease was resuspended at 2 mg/mL in 100 mM HEPES, pH 7.8. Proteolysis was achieved by incubation of 50 μg PSMs at 37° C. for ˜5 hours with 0.2 mg/mL SspA. The antimicrobial activity of the proteolytic products were assayed by spotting a 5 μL (˜45 μg) from each treated peptide on each test microorganism as described above.

[7] = system: Saccharomyces cerevisiae AR 400; assay: MIC, YPD broth, CDC and FDA AR Candida isolate panel; type: cell-based; conditions: Table 9 top part: titrations from 1.56 to 100 μg/mL
In short: (§3)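 Using peptides at 95% purity, yeast suspensions adjusted to an optical density of […] received two-fold diluted peptide, were held static overnight at 37° C, and were compared against sterile-water controls.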

[8] = system: Candida duobushaemulonii AR 392; assay: as above; type: cell-based; conditions: Table 9 top part: titrations from 1.56 to 100 μg/mL
In short: as §3

Candida krusei AR 397 = assay: as above; type: cell-based; conditions: Table 9 top part: titrations from 1.56 to 100 μg/mL
In short: as §3

Kodamae ohmeri AR 396 = assay: as above; type: cell-based; conditions: Table 9 top part: titrations from 1.56 to 100 μg/mL
In short: as §3

[9] = system: Saccharomyces cerevisiae AR 399; assay: as above; type: cell-based; conditions: Table 9 top part: titrations from 1.56 to 100 μg/mL
In short: as §3

[10] = system: S. aureus ATCC BAA-41 (MRSA SCCmec type II); assay: MIC, broth dilution; type: cell-based, Staphylococcus aureus; conditions: Table 5; STIP3 variants, highest concentration 100 μg/mL
In short: as §2

[11] = system: S. aureus ATCC BAA-2094 (MRSA SCCmec type V); assay: MIC, broth dilution; type: cell-based, Staphylococcus aureus; conditions: Table 5; STIP3 variants, highest concentration 100 μg/mL
In short: as §2

[12] = system: S. aureus ATCC BAA-2313 (MRSA SCCmec type XI); assay: MIC, broth dilution; type: cell-based, Staphylococcus aureus; conditions: Table 5; STIP3 variants, highest concentration 100 μg/mL
In short: as §2

[13] = system: S. aureus ATCC BAA-1683 (MRSA SCCmec type IV); assay: MIC, broth dilution; type: cell-based, Staphylococcus aureus; conditions: Table 5; STIP3 variants, highest concentration 100 μg/mL
In short: as §2

[14] = system: S. aureus ATCC BAA-44 (MRSA SCCmec type I); assay: MIC, broth dilution; type: cell-based, Staphylococcus aureus; conditions: Table 5; STIP3 variants, highest concentration 100 μg/mL
In short: as §2

[15] = system: S. aureus ATCC BAA-42 (MRSA SCCmec type VI); assay: MIC, broth dilution; type: cell-based, Staphylococcus aureus; conditions: Table 5; STIP3 variants, highest concentration 100 μg/mL
In short: as §2

Row | Compound | MIC (μg/mL) M. luteus (M. luteus ATCC 4698) | MIC (μg/mL) S. aureus (S. aureus ATCC 29213 [2]; Table 4) | MIC (μg/mL) M. haemolytica ([5]; Table 10, liquid broth) | inhibition of S. aureus, spot-on-lawn (S. aureus ATCC 29213 [6]) | MIC (μg/mL) S. aureus (S. aureus ATCC 29213 [2]; Table 10) | also measured
1 | CC[C@H](C)[C@H](NC(=O)[C@H](Cc1c[nH]c2ccccc12)NC(=O)[C@H](CCCCN)NC(=O)[C@@H](NC(=O)[C@H](CC(C)C)NC(=O)CNC(=O)CNC(=O)[C@@H](NC(=O)[C@@H](N)[C@@H](C)O)C(C)C)C(C)C)C(=O)N[C@@H](CC(C)C)C(=O)N[C@H](CCCCN)C(=O)N[C@H](C(=O)N[C@H](C(=O)N[C@@H](CCCCN)C(=O)N[C@@H](CCCCN)C(=O)N[C@@H](Cc1ccccc1)C(=O)N[C@@H](C)C(N)=O)C(C)C)[C@@H](C)O [STIP3-29-D1, TVGGLVKWILKTVKKFA-NH2] (H-TVGGLVKWIL[dK]TVKKFA-NH2; N-terminus assumed) |  |  |  |  |  | fold increase of MIC relative to STIP3-29 [1]: 4 fold; MIC S. aureus ATCC 29213 (S. aureus ATCC 29213 [2]): 12.5 µg/mL (≈ 6.62 µM); MIC S. aureus ATCC 33592 (III) [3]: 25 µg/mL (≈ 13.2 µM); α helicity (%) [4]: 51%; MIC C. albicans Y537 (C. albicans Y537): 25 µg/mL (≈ 13.2 µM); MIC C. albicans MYA-2876 (C. albicans MYA-2876): 12.5 µg/mL (≈ 6.62 µM)
2 | AVGGLVKWILDTVKKFA [T1A, AVGGLVKWILDTVKKFA] | 12.5 µg/mL | 200 µg/mL | 50 µg/mL | observed to inhibit S. aureus |  | 
3 | TVAGLVKWILDTVKKFA [G3A, TVAGLVKWILDTVKKFA] | 50 µg/mL | >^b (> = >200 μg/mL (maximum concentration tested)) | 100 µg/mL | observed to inhibit S. aureus | >^b (the use of > indicates an MIC > 200 μg/mL; the maximum concentration tested) | 
4 | TVGALVKWILDTVKKFA [G4A, TVGALVKWILDTVKKFA] | 12.5 µg/mL | >^b (> = >200 μg/mL (maximum concentration tested)) | 50 µg/mL | observed to inhibit S. aureus | >^b (the use of > indicates an MIC > 200 μg/mL; the maximum concentration tested) | 
5 | TVGGLVKWILATVKKFA [STIP3-2, TVGGLVKWILATVKKFA] | 3.13 µg/mL | 100 µg/mL | 50 µg/mL | observed to inhibit S. aureus |  | MIC (μg/mL) Saccharomyces cerevisiae AR 400 [7]: 100 µg/mL; MIC (μg/mL) Candida duobushaemulonii AR 392 [8]: > (MIC values reported at the top of the table (above the double line) are based on titrations from 1.56 to 100 μg/mL); MIC (μg/mL) Candida krusei AR 397 (Candida krusei AR 397): 50 µg/mL; MIC (μg/mL) Kodamae ohmeri AR 396 (Kodamae ohmeri AR 396): 100 µg/mL; MIC (μg/mL) Saccharomyces cerevisiae AR 399 [9]: 50 µg/mL; MIC S. aureus ATCC 29213 (S. aureus ATCC 29213 [2]): 100 µg/mL; MIC S. aureus ATCC BAA 41 (II) [10]: 100 µg/mL; MIC S. aureus ATCC 33592 (III) [3]: 50 µg/mL; MIC S. aureus ATCC BAA 2094 (V) [11]: 50 µg/mL; MIC S. aureus ATCC BAA 2313 (XI) [12]: 50 µg/mL; MIC S. aureus ATCC BAA 1683 (IV) [13]: 50 µg/mL; MIC S. aureus ATCC BAA 44 (I) [14]: 100 µg/mL; MIC S. aureus ATCC BAA 42 (VI) [15]: 50 µg/mL; α helicity (%) [4]: 50%; MIC (μg/mL) M. haemolytica ([5]; Table 11, highest concentration 25 μg/mL): 25 µg/mL; MIC C. albicans MYA-2876 (C. albicans MYA-2876): 100 µg/mL
6 | TVGGLVKWILDAVKKFA [T12A, TVGGLVKWILDAVKKFA] | 12.5 µg/mL | 100 µg/mL | 50 µg/mL | observed to inhibit S. aureus |  | 
7 | TVGGLVKWILDTVAKFA [K14A, TVGGLVKWILDTVAKFA] | 12.5 µg/mL | >^b (> = >200 μg/mL (maximum concentration tested)) | 100 µg/mL | observed to inhibit S. aureus | >^b (the use of > indicates an MIC > 200 μg/mL; the maximum concentration tested) | 
8 | TVGGLVKWILDTVKAFA [K15A, TVGGLVKWILDTVKAFA] | 25 µg/mL | >^b (> = >200 μg/mL (maximum concentration tested)) | 50 µg/mL | observed to inhibit S. aureus | >^b (the use of > indicates an MIC > 200 μg/mL; the maximum concentration tested) | 
